Results as given in ChEMBL document CHEMBL1201862, “PubChem BioAssay data set” (2004).
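In this assay, cells in 96-well plates receive the compound at five concentrations for 48 hours. Endpoints are linearly interpolated between the surrounding concentrations. GI50 is the concentration that inhibits growth by half.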 Activity calls are given as the source filed them. No stated cut-off is given here; in the data, active = GI50 up to about 1.1 µM and inactive = higher.

How the values were obtained:
Test in all cases: DTP human tumour cell line panel, 48 h
786-0 = system: 786-0
SW-620 = system: SW-620
MCF7 = system: MCF7
HL-60 = system: HL-60
RPMI-8226 = system: RPMI-8226
Malme-3M = system: Malme-3M
Hs-578T = system: Hs-578T
HCT-15 = system: HCT-15
SK-MEL-28 = system: SK-MEL-28
A498 = system: A498
M14 = system: M14
HT-29 = system: HT-29
HCT-116 = system: HCT-116
HOP-62 = system: HOP-62
TK-10 = system: TK-10
OVCAR-3 = system: OVCAR-3
SK-OV-3 = system: SK-OV-3
SR = system: SR
LOX IMVI = system: LOX IMVI
SK-MEL-2 = system: SK-MEL-2
BT-549 = system: BT-549
PC-3 = system: PC-3
UACC-62 = system: UACC-62
COLO 205 = system: COLO 205
SF-295 = system: SF-295
SN12C = system: SN12C
DU-145 = system: DU-145
MOLT-4 = system: MOLT-4
KM12 = system: KM12
UACC-257 = system: UACC-257
NCI-H226 = system: NCI-H226
NCI-H460 = system: NCI-H460
CCRF-CEM = system: CCRF-CEM
SK-MEL-5 = system: SK-MEL-5
OVCAR-5 = system: OVCAR-5
NCI-H23 = system: NCI-H23
SF-539 = system: SF-539
IGROV-1 = system: IGROV-1
ACHN = system: ACHN
OVCAR-8 = system: OVCAR-8
MDA-MB-231 = system: MDA-MB-231
SNB-75 = system: SNB-75
MDA-MB-435 = system: MDA-MB-435
SNB-19 = system: SNB-19
EKVX = system: EKVX
NCI/ADR-RES = system: NCI/ADR-RES
SF-268 = system: SF-268
CAKI-1 = system: CAKI-1
K562 = system: K562

SMILES: COC1=CC(=O)N(C(=O)C2CSC(C(CO)NC(=O)c3csc(/C=N/O)n3)=N2)C1 (centres undefined)
- GI50 (786-0): > 100 µM (inactive)
- GI50 (SW-620): > 100 µM (inactive)
- GI50 (MCF7): > 100 µM (inactive)
- GI50 (HL-60): > 100 µM (inactive)
- GI50 (RPMI-8226): > 100 µM (inactive)
- GI50 (Malme-3M): 64.4 µM (inactive)
- GI50 (Hs-578T): 15.9 µM (inactive)
- GI50 (HCT-15): > 100 µM
- GI50 (SK-MEL-28): > 100 µM (inactive)
- GI50 (A498): > 100 µM (inactive)
- GI50 (M14): > 100 µM (inactive)
- GI50 (HT-29): > 100 µM (inactive)
- GI50 (HCT-116): > 100 µM (inactive)
- GI50 (HOP-62): > 100 µM (inactive)
- GI50 (TK-10): > 100 µM (inactive)
- GI50 (OVCAR-3): > 100 µM (inactive)
- GI50 (SK-OV-3): > 100 µM (inactive)
- GI50 (SR): > 100 µM (inactive)
- GI50 (LOX IMVI): > 100 µM (inactive)
- GI50 (SK-MEL-2): > 100 µM (inactive)
- GI50 (BT-549): > 100 µM (inactive)
- GI50 (PC-3): > 100 µM (inactive)
- GI50 (UACC-62): > 100 µM (inactive)
- GI50 (COLO 205): > 100 µM (inactive)
- GI50 (SF-295): > 100 µM (inactive)
- GI50 (SN12C): > 100 µM (inactive)
- GI50 (DU-145): > 100 µM (inactive)
- GI50 (MOLT-4): > 100 µM (inactive)
- GI50 (KM12): > 100 µM (inactive)
- GI50 (UACC-257): > 100 µM (inactive)
- GI50 (NCI-H226): 36.6 µM (inactive)
- GI50 (NCI-H460): > 100 µM (inactive)
- GI50 (CCRF-CEM): > 100 µM (inactive)
- GI50 (SK-MEL-5): > 100 µM (inactive)
- GI50 (OVCAR-5): > 100 µM (inactive)
- GI50 (NCI-H23): > 100 µM (inactive)
- GI50 (SF-539): > 100 µM (inactive)
- GI50 (IGROV-1): > 100 µM (inactive)
- GI50 (ACHN): > 100 µM (inactive)
- GI50 (OVCAR-8): > 100 µM (inactive)
- GI50 (MDA-MB-231): > 100 µM (inactive)
- GI50 (SNB-75): 0.302 µM (active)
- GI50 (MDA-MB-435): > 100 µM (inactive)
- GI50 (SNB-19): > 100 µM (inactive)
- GI50 (EKVX): > 100 µM (inactive)
- GI50 (NCI/ADR-RES): > 100 µM (inactive)
- GI50 (SF-268): > 100 µM (inactive)
- GI50 (CAKI-1): > 100 µM (inactive)
- GI50 (K562): > 100 µM (inactive)
